Test [1] has as its system TβR-I and TβR-II. Put plainly: Western blot of TβR-I and TβR-II protein levels, Mv1Lu cells. The class given is cell-based, mink. Particulars: 50 μg/ml.
Method: Cells grown to near confluence on 12-well cluster dishes were treated with cholesterol or LDL in serum-free DMEM (vol.=0.5 ml/well) at 37° C. for 1 hr. The treated cells were further incubated with 50 or 100 pM TGF-β1 at 37° C. for 30 min (for determining Smad2 phosphorylation) or for 2 hr (for determining TβR-II). Treated cells were lysed and cell lysates were analyzed by 7.5% SDS-PAGE and Western blot analysis using anti-Smad2, anti-P-Smad2, anti-caveolin-1, anti-TβR-I (alk5) or anti-TβR-II antibodies as described previously (30). The antigens on the blots were visualized by using horseradish peroxidase-conjugated anti-rabbit IgG antibody and the ECL system as described (30).
To determine if cholesterol suppresses TGF-β responsiveness by decreasing the ratio of TGF-β1 binding to TβR-II and TβR-I, we first determined the time course of the effect of cholesterol treatment on the ratio of ^125I-TGF-β1 binding to TβR-II and TβR-I in Mv1Lu cells. These cells were treated with 50 μg/ml cholesterol at 37° C. for several time periods. ^125I-TGF-β1 binding to TGF-β receptors was then determined by affinity labeling using the bifunctional cross-linking agent DSS (disuccinimidyl suberate) followed by 7.5% SDS-PAGE and autoradiography or quantified with a PhosphoImager. […] We then performed analysis of the effect of cholesterol treatment on TGF-β1 binding to TβR-I and TβR-II in several cell types. Mv1Lu, BAEC, and NRK cells were treated for 1 hr with increasing concentrations of cholesterol in the presence and absence of 0.2% β-cyclodextrin (β-CD, which forms water-soluble complexes with cholesterol) at 37° C. The binding of TGF-β1 to TβR-I and TβR-II in these cells was then determined by ^125I-TGF-β1 affinity labeling at 0° C.
Test [2] concerns Mv1Lu cells. Put plainly: [Methyl-3H]thymidine incorporation (DNA synthesis), Mv1Lu cells. The class given is cell-based, mink. On the procedure: (§1) (A, B, C, D, E, F) Cells were treated with 50 μg/ml cholesterol (A, B, C, D) and 50 μg/ml LDL (D) at 37° C. for 1 hr or with 1 μM fluvastatin or lovastatin (E) or several concentrations of fluvastatin (F) at 37° C. for 16 hr and then further incubated with increasing concentrations (as indicated) of TGF-β1 (A, B, C, E) or 50 pM TGF-β1 (D,F) for 2 hr. Northern blot analysis of PAI-1 and G3PDH was performed. A representative of a total of three analyses is shown (a). The relative intensities of the transcripts were quantified with a PhosphoImager. The ratio of the relative intensities of PAI-1 and G3PDH transcripts in cells treated without TGF-β1 and cholesterol, LDL or statins on the blot was taken as 1 fold or 100% of PAI-1 expression. The quantitative data from three independent analyses is shown (b). […] (G) Mv1Lu cells stably expressing a luciferase reporter gene driven by the PAI-1 promoter (MLECs-clone 32) were treated with increasing concentrations (as indicated) of cholesterol at 37 EC for 1 hr (a) or with 1 μM lovastatin at 37° C. for 16 hr (b) and then further incubated with 50 pM TGF-β for 7 hr. The luciferase activity in cells treated without cholesterol was taken as 100% (a). […] (H) Cells were incubated with 0.0625 and 0.125 pM TGF-β1 in the presence of increasing concentrations of cholesterol, as indicated. After 18 hr at 37° C., cell growth was determined by measurement of [^3H-methyl]thymidine incorporation into cellular DNA (a). The [^3H-methyl]thymidine incorporation in cells treated with vehicle only (T1); with TGF-β1 (T2); with cholesterol (T3); with cholesterol and TGF-β1 (T4) was measured. T1 was taken as 100%. The degree (%) of cholesterol-mediated reversal of TGF-β1 growth inhibition was estimated by the equation: % reversal=[1−(T3−T4/T1−T2)]×100 Cholesterol appeared to reverse TGF-β1 growth inhibition in a dose-dependent manner (b). The experiments were carried out in triplicate.
The growth of cholesterol-treated cells was determined by measurement of [methyl-^3H]thymidine incorporation into cellular DNA as described (30). Briefly, cells grown near confluence on 48-well clustered dishes were treated with several concentrations of cholesterol at 37° C. for 1 hr in serum-free DMEM. The final concentration of ethanol (the vehicle for cholesterol) in the medium was 0.2%. […] The [methyl-^3H]thymidine incorporation into cellular DNA was then determined by incubation of cells with [methyl-^3H]thymidine at 37° C. for 2 hr in DMEM containing 0.1% fetal calf serum. […]
Another prominent biological activity of TGF-β is growth inhibition of many different cell types. […] DNA synthesis was then determined by measurement of [^3H-methyl]thymidine incorporation into cellular DNA (FIG. 2Ha). […]
In general terms: Dividing cells build labelled thymidine or BrdU into new DNA.

Test [3] has as its system PAI-1 expression. Put plainly: TGF-β1-induced PAI-1 expression, Northern blot, NRK cells. The class given is cell-based, rat. To be noted: 50 μg/ml, TGF-β1 2 to 100 pM. On the procedure: as §1, with “After 18 hr at 37° C., cell growth was determined by measurement of [^3H-methyl]thymidine incorporation into cellular DNA (a). The [^3H-methyl]thymidine incorporation in cells treated with vehicle only (T1); with TGF-β1 (T2); with cholesterol (T3); with cholesterol and TGF-β1 (T4) was measured. T1 was taken as 100%. The degree (%) of cholesterol-mediated reversal of TGF-β1 growth inhibition was estimated by the equation: % reversal=[1−(T3−T4/T1−T2)]×100 Cholesterol appeared to reverse TGF-β1 growth inhibition in a dose-dependent manner (b).” left out

The structures appear in SMILES notation.

Take `CC(C)CCC[C@@H](C)[C@H]1CC[C@H]2[C@@H]3CC=C4C[C@@H](O)CC[C@]4(C)[C@H]3CC[C@]12C` [cholesterol]: the “effect on the protein levels of TβR-I and TβR-II” value in test [1] (data not shown) is on record as “did not affect”. Also, the “effect on the total amount of TβR-II protein” value in test [1] (cholesterol alone) is given as “did not affect”. The “reversal of DNA synthesis inhibition induced by TGF-β1” value in test [2] (8 μg/ml, 0.0625 and 0.125 pM TGF-β1, 18 hr) was “almost completely reversed”. In addition, the “effect on DNA synthesis, alone” value in test [2] (6 and 8 μg/ml, without TGF-β1) was “inhibited”. The “suppression of TGF-β1-stimulated PAI-1 expression” value in test [3] is 60-65%.

(Values after US8946201B2, “Methods for inhibiting TGF-β” (Saint Louis University, priority 2007, dated 2015).)
